# From patent US7183061B2, “Method of expressing Heliothis ecdysone receptor fusion protein” (Syngenta Limited, priority 1996, dated 2007)
# What was measured:
# [1] = biological target: T1, glucocorticoid/Heliothis ecdysone chimeric receptor (UniProt O18473+P04150); experiment: CHO cells transfected with pcDNA3GRHEcR and pSWGRE4 (β-galactosidase reporter); assay type: cell-based, Heliothis virescens; design: expressed in transfected cells; host or cells: CHO-K1 (A7); conditions: co-transformed CHO cells (FIG. 27)
# T1 sequence (P04150+O18473 with tags, fused parts or gaps): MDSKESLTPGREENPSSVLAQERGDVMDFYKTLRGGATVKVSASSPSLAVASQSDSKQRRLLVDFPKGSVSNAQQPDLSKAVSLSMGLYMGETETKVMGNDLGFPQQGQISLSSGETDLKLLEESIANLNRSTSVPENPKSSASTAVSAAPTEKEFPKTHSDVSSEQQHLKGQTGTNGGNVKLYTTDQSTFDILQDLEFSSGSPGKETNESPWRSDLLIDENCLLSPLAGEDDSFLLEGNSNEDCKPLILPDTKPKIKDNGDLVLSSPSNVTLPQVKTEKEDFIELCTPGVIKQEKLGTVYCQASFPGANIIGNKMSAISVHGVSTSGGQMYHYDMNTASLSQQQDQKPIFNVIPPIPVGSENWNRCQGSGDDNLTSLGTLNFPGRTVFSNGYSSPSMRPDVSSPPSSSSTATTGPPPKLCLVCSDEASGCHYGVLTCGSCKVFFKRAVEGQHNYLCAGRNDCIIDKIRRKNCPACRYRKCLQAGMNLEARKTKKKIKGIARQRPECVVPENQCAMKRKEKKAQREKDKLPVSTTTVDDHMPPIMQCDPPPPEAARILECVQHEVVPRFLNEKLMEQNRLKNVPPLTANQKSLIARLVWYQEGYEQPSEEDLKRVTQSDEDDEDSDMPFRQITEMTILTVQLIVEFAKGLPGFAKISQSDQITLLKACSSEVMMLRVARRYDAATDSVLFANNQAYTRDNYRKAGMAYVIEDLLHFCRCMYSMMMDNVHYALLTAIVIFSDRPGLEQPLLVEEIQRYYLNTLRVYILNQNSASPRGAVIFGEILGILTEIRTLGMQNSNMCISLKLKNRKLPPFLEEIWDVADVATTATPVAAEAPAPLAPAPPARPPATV
# Method: Transfections of mammalian cell lines (CHO-K1 Chinese hamster ovary) ATCC number CCL61 or cos-1 (Monkey cell line) were performed using either calcium phosphate precipitation (Gorman, Chapter 6 of “DNA cloning: a practical approach. Vol 2 D. M. Glover ed/.(1985) IRL Press, Oxford) or using LipofectAMINE (Gibco BRL Cat. No. 18324–012, following manufacturer's instructions). […] 293 cells were transfected using analogous methods.
# The mammalian expression vector used in this experiment was pcDNA3 (Invitrogen). The GRHEcR 2.7 kb BamHI DNA fragment (isolated from pMF6GRHEcR) was introduced into the pcDNA3 BamHI vector. The recombinants were oriented by restriction enzyme mapping. The DNA sequence of the junctions was determined to ensure correct orientation and insertion (pcDNA3GRHEcR, FIG. 25).
# The reporter plasmid for mammalian cell system was produced by taking pSWBGAL plasmid and replacing the CRESW SpeI/ClaI fragment for a synthetic 105 bp DNA fragment containing 4 copies of the glucocorticoid response element (GRE) and flanked by SpeI at the 5′ end and AflII at the 3′ end.
# The two oligonucleotides were purified annealed and ligated to pSWBGAL SpeI/AflII to produce pSWGRE4 (FIG. 26).
# A screen was carried out using CHO cells transiently transfected with both pSWGRE4 (reporter) and pcDNA3GRHEcR (effector) constructs. […]
# [2] = biological target: T1, glucocorticoid/Heliothis ecdysone chimeric receptor; experiment: Tobacco mesophyll protoplast GUS reporter assay with chimeric effector and p221.9GRE6; assay type: cell-based, Heliothis virescens; design: expressed in transfected cells; host or cells: maize protoplasts (A5); tobacco mesophyll protoplasts (A6); CHO-K1 (A7); HEK293 (A8); stably transformed tobacco plants (A9); conditions: tobacco protoplasts, 10 μM
# Method: It is the aim in this example to show the generic application to plants of the glucocorticoid/Heliothis ecdysone chimeric receptor switch system. Tobacco shoot cultures cv. Samsun, were maintained on solidified MS medium +3% sucrose in a controlled environment room (16 hour day/8 hour night at 25° C., 55% R.H), were used as the source material for protoplasts. Leaves were sliced parallel to the mid-rib, discarding any large veins and the slices were placed in CPW13M 13% Mannitol, pH 5.6, ˜860 mmol/kg) for ˜1 hour to pre-plasmolyse the cells. This solution was replaced with enzyme mixture (0.2% Cellulase R10, 0.05% Macerozyme R10 in CPW9M (CPW13M but 9% Mannitol), pH 5.6, ˜600 mmol/kg) and incubated in the dark at 25° C. overnight (˜16 hours). Following digestion, the tissue was teased apart with forceps and any large undigested pieces were discarded. The enzyme mixture was passed through a 75 μm sieve and the filtrate was centrifuged at 600 rpm for 3.5 minutes, discarding the supernatant. The pellet was resuspended in 0.6 M sucrose solution and centrifuged at 600 rpm for 10 minutes. The floating layer of protoplasts was removed using a Pasteur pipette and diluted with CPW9M (pH 5.6, ˜560 mmol/kg). The protoplasts were again pelleted by centrifuging at 600 rpm for 3.5 minutes, resuspended in CPW9M and counted. A modified version of the PEG-mediated transformation above was carried out. […]
smiles,measurement,setting,value
"CCc1ccc(C(=O)NN(C(=O)c2cc(C)cc(C)c2)C(C)(C)C)cc1 [RH5992, 3,5-dimethylbenzoic acid 1-1(1,1-dimethylethyl)-2(4-ethylbenzoyl)hydrazide]",chemical induced reporter gene activity,[1],significant chemical induced reporter gene activity
same,marker gene activity,[2],significant elevation of marker gene activity
